# Experimental data as given in ChEMBL document CHEMBL3045495, “Lipophilic 2-(4-chlorophenyl)-4-thiazolyl-1,4-dihydropyridines: synthesis, calcium channel antagonist activity, and protection against pentylenetetrazole-induced seizure” (Med Chem Res, 2009).
# System: Mus musculus
# Test: Anticonvulsant activity against pentylenetetrazole-induced seizures in Mus musculus NMRI (mouse) assessed as time of maximal effect at 60 mg/kg, ip administered 15 min before PTZ challenge (reference value: 24.86 +/- 0.96 min)
# Assay type: functional
# Conditions: route intraperitoneal
row,Compound,Time
1,CCCOC(=O)C1=C(C)NC(C)=C(C(=O)OCC)C1c1csc(-c2ccc(Cl)cc2)n1 (centres undefined),37.07 min
2,CCOC(=O)C1=C(C)NC(C)=C(C(=O)OCc2ccccc2)C1c1csc(-c2ccc(Cl)cc2)n1 (centres undefined),37.82 min

# System: Mus musculus
# Test: Anticonvulsant activity against pentylenetetrazole-induced seizures in Mus musculus NMRI (mouse) assessed as time of maximal effect at 10 mg/kg, ip administered 15 min before PTZ challenge (reference value: 24.86 +/- 0.96 min)
# Assay type: functional
# Conditions: route intraperitoneal
row,Compound,Time
1,CC1=C(C(=O)OC2CCCCC2)C(c2csc(-c3ccc(Cl)cc3)n2)C(C(=O)OC2CCCCC2)=C(C)N1,35.59 min

# System: Mus musculus
# Test: Anticonvulsant activity against pentylenetetrazole-induced seizures in Mus musculus NMRI (mouse) assessed as time of maximal effect at 10 mg/kg, ip administered 30 min before PTZ challenge (reference value: 24.86 +/- 0.96 min)
# Assay type: functional
# Conditions: route intraperitoneal
row,Compound,Time
1,COC(=O)C1=C(C)NC(C)=C(C(=O)OC)C1c1csc(-c2ccc(Cl)cc2)n1,40.94 min
2,CCOC(=O)C1=C(C)NC(C)=C(C(=O)OCC)C1c1csc(-c2ccc(Cl)cc2)n1,32.64 min
3,CCCOC(=O)C1=C(C)NC(C)=C(C(=O)OCCC)C1c1csc(-c2ccc(Cl)cc2)n1,36.26 min
4,CC1=C(C(=O)OCC(C)C)C(c2csc(-c3ccc(Cl)cc3)n2)C(C(=O)OCC(C)C)=C(C)N1,39.32 min
5,CCCOC(=O)C1=C(C)NC(C)=C(C(=O)OC)C1c1csc(-c2ccc(Cl)cc2)n1 (centres undefined),37.6 min
6,CCOC(=O)C1=C(C)NC(C)=C(C(=O)OC(C)C)C1c1csc(-c2ccc(Cl)cc2)n1 (centres undefined),35.87 min
7,COC(=O)C1=C(C)NC(C)=C(C(=O)OC2CCCC2)C1c1csc(-c2ccc(Cl)cc2)n1 (centres undefined),34.42 min
8,CCOC(=O)C1=C(C)NC(C)=C(C(=O)OC2CCCC2)C1c1csc(-c2ccc(Cl)cc2)n1 (centres undefined),38.8 min
9,COC(=O)C1=C(C)NC(C)=C(C(=O)OC(C)c2ccccc2)C1c1csc(-c2ccc(Cl)cc2)n1 (centres undefined),42.1 min
10,COC(=O)C1=C(C)NC(C)=C(C(=O)OC)C1c1ccccc1[N+](=O)[O-] [NIFEDIPINE],43.88 min

# System: Mus musculus
# Test: Anticonvulsant activity against pentylenetetrazole-induced seizures in Mus musculus NMRI (mouse) assessed as time of maximal effect at 20 mg/kg, ip administered 30 min before PTZ challenge
# Assay type: functional
# Conditions: route intraperitoneal
row,Compound,Time
1,COC(=O)C1=C(C)NC(C)=C(C(=O)OC)C1c1csc(-c2ccc(Cl)cc2)n1,44.3 min
2,CCOC(=O)C1=C(C)NC(C)=C(C(=O)OCC)C1c1csc(-c2ccc(Cl)cc2)n1,39.07 min
3,CCCOC(=O)C1=C(C)NC(C)=C(C(=O)OCCC)C1c1csc(-c2ccc(Cl)cc2)n1,42.05 min
4,CC1=C(C(=O)OCC(C)C)C(c2csc(-c3ccc(Cl)cc3)n2)C(C(=O)OCC(C)C)=C(C)N1,47.62 min
5,CCCOC(=O)C1=C(C)NC(C)=C(C(=O)OC)C1c1csc(-c2ccc(Cl)cc2)n1 (centres undefined),43.8 min
6,CCOC(=O)C1=C(C)NC(C)=C(C(=O)OC(C)C)C1c1csc(-c2ccc(Cl)cc2)n1 (centres undefined),44.64 min
7,COC(=O)C1=C(C)NC(C)=C(C(=O)OC2CCCC2)C1c1csc(-c2ccc(Cl)cc2)n1 (centres undefined),42.7 min
8,CCOC(=O)C1=C(C)NC(C)=C(C(=O)OC2CCCC2)C1c1csc(-c2ccc(Cl)cc2)n1 (centres undefined),47.8 min
9,COC(=O)C1=C(C)NC(C)=C(C(=O)OC(C)c2ccccc2)C1c1csc(-c2ccc(Cl)cc2)n1 (centres undefined),43.06 min
10,COC(=O)C1=C(C)NC(C)=C(C(=O)OC)C1c1ccccc1[N+](=O)[O-] [NIFEDIPINE],48.3 min

# System: Mus musculus
# Test: Anticonvulsant activity against pentylenetetrazole-induced seizures in Mus musculus NMRI (mouse) assessed as time of maximal effect at 5 mg/kg, ip administered 15 min before PTZ challenge
# Assay type: functional
# Conditions: route intraperitoneal
row,Compound,Time
1,CC1=C(C(=O)OC2CCCCC2)C(c2csc(-c3ccc(Cl)cc3)n2)C(C(=O)OC2CCCCC2)=C(C)N1,35.65 min

# System: Mus musculus
# Test: Anticonvulsant activity against pentylenetetrazole-induced seizures in Mus musculus NMRI (mouse) assessed as time of maximal effect at 20 mg/kg, ip administered 15 min before PTZ challenge
# Assay type: functional
# Conditions: route intraperitoneal
row,Compound,Time
1,CC1=C(C(=O)OC2CCCCC2)C(c2csc(-c3ccc(Cl)cc3)n2)C(C(=O)OC2CCCCC2)=C(C)N1,37.86 min

# System: Mus musculus
# Test: Anticonvulsant activity against pentylenetetrazole-induced seizures in Mus musculus NMRI (mouse) assessed as time of maximal effect at 5 mg/kg, ip administered 60 min before PTZ challenge
# Assay type: functional
# Conditions: route intraperitoneal
row,Compound,Time
1,CCCOC(=O)C1=C(C)NC(C)=C(C(=O)OCC)C1c1csc(-c2ccc(Cl)cc2)n1 (centres undefined),34.5 min
2,CCOC(=O)C1=C(C)NC(C)=C(C(=O)OCc2ccccc2)C1c1csc(-c2ccc(Cl)cc2)n1 (centres undefined),33.87 min

# System: Mus musculus
# Test: Anticonvulsant activity against pentylenetetrazole-induced seizures in Mus musculus NMRI (mouse) assessed as time of maximal effect at 20 mg/kg, ip administered 60 min before PTZ challenge
# Assay type: functional
# Conditions: route intraperitoneal
row,Compound,Time
1,CCCOC(=O)C1=C(C)NC(C)=C(C(=O)OCC)C1c1csc(-c2ccc(Cl)cc2)n1 (centres undefined),42.32 min
2,CCOC(=O)C1=C(C)NC(C)=C(C(=O)OCc2ccccc2)C1c1csc(-c2ccc(Cl)cc2)n1 (centres undefined),39.6 min

# System: Mus musculus
# Test: Anticonvulsant activity against pentylenetetrazole-induced seizures in Mus musculus NMRI (mouse) assessed as time of maximal effect at 5 mg/kg, ip administered 30 min before PTZ challenge
# Assay type: functional
# Conditions: route intraperitoneal
row,Compound,Time
1,COC(=O)C1=C(C)NC(C)=C(C(=O)OC)C1c1csc(-c2ccc(Cl)cc2)n1,39.05 min
2,CCOC(=O)C1=C(C)NC(C)=C(C(=O)OCC)C1c1csc(-c2ccc(Cl)cc2)n1,27.76 min
3,CCCOC(=O)C1=C(C)NC(C)=C(C(=O)OCCC)C1c1csc(-c2ccc(Cl)cc2)n1,34.75 min
4,CC1=C(C(=O)OCC(C)C)C(c2csc(-c3ccc(Cl)cc3)n2)C(C(=O)OCC(C)C)=C(C)N1,37.5 min
5,CCCOC(=O)C1=C(C)NC(C)=C(C(=O)OC)C1c1csc(-c2ccc(Cl)cc2)n1 (centres undefined),31.7 min
6,CCOC(=O)C1=C(C)NC(C)=C(C(=O)OC(C)C)C1c1csc(-c2ccc(Cl)cc2)n1 (centres undefined),34.2 min
7,COC(=O)C1=C(C)NC(C)=C(C(=O)OC2CCCC2)C1c1csc(-c2ccc(Cl)cc2)n1 (centres undefined),33.22 min
8,CCOC(=O)C1=C(C)NC(C)=C(C(=O)OC2CCCC2)C1c1csc(-c2ccc(Cl)cc2)n1 (centres undefined),39.6 min
9,COC(=O)C1=C(C)NC(C)=C(C(=O)OC(C)c2ccccc2)C1c1csc(-c2ccc(Cl)cc2)n1 (centres undefined),27.82 min
10,COC(=O)C1=C(C)NC(C)=C(C(=O)OC)C1c1ccccc1[N+](=O)[O-] [NIFEDIPINE],40.66 min

# Biological target: Voltage-dependent L-type calcium channel subunit alpha-1C (Cavia porcellus, UniProt O35505)
# Sequence (O35505 whole entry): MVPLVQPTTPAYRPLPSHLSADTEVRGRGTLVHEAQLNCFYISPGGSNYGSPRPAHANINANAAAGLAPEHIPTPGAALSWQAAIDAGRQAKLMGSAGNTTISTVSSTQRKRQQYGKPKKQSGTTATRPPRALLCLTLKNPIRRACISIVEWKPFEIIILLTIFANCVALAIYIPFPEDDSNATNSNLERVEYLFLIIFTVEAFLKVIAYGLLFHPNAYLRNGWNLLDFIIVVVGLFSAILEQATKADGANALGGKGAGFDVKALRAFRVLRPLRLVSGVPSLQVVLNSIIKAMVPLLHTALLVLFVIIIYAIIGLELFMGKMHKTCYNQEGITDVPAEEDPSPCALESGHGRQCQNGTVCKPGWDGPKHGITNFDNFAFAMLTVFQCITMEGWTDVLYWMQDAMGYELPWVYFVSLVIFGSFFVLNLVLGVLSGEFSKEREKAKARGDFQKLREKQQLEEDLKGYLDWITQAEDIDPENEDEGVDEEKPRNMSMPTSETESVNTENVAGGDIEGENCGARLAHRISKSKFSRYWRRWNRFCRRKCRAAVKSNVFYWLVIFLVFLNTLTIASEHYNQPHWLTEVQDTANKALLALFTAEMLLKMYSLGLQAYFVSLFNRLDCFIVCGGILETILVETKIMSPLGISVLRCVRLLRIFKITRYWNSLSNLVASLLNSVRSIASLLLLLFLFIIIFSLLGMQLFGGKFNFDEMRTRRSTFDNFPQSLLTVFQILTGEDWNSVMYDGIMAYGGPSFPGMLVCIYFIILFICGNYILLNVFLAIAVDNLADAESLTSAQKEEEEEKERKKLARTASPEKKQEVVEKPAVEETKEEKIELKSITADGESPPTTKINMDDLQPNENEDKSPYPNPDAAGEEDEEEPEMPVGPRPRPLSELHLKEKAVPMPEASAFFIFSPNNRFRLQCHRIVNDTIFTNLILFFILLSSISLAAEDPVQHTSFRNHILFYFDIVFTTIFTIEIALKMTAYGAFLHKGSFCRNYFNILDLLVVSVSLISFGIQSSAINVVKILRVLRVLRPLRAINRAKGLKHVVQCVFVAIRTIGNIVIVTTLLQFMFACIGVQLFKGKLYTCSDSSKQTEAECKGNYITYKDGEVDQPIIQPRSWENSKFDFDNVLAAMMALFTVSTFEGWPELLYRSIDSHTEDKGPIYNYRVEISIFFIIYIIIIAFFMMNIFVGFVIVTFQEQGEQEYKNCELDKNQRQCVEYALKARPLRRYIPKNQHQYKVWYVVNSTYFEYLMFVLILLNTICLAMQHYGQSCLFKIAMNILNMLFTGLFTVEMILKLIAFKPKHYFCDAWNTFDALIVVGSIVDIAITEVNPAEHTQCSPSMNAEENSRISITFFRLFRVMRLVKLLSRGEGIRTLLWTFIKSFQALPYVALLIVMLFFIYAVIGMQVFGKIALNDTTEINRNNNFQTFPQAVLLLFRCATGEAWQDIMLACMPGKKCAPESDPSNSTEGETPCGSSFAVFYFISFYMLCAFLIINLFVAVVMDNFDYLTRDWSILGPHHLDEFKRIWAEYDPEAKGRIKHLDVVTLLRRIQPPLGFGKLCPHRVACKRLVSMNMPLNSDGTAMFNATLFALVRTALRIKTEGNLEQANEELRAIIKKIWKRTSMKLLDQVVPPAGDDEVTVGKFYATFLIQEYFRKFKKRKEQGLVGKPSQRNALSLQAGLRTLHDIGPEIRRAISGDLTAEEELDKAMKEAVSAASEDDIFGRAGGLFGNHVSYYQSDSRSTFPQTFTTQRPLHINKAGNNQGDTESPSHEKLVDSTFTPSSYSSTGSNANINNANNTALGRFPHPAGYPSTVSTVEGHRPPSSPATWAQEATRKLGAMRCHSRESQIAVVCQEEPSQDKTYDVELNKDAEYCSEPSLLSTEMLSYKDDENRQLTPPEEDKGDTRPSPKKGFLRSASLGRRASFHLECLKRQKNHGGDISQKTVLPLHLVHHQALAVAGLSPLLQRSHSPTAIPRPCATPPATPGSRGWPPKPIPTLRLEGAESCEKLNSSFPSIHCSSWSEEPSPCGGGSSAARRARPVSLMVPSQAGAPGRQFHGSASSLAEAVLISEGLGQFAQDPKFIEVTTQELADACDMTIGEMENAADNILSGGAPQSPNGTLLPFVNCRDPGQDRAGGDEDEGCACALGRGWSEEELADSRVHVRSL
# Test: Antagonist activity at Calcium channel in Cavia porcellus (guinea pig) ileal smooth muscle assessed as inhibition of 40 mM KCl-induced contraction compound pretreated for 15 min before KCl treatment
# Conditions: not given
row,Compound,IC50
1,COC(=O)C1=C(C)NC(C)=C(C(=O)OC)C1c1csc(-c2ccc(Cl)cc2)n1,4.43 µM
2,CCCOC(=O)C1=C(C)NC(C)=C(C(=O)OCCC)C1c1csc(-c2ccc(Cl)cc2)n1,4.8 µM
3,CC1=C(C(=O)OCC(C)C)C(c2csc(-c3ccc(Cl)cc3)n2)C(C(=O)OCC(C)C)=C(C)N1,24.9 µM
4,CC1=C(C(=O)OC(C)(C)C)C(c2csc(-c3ccc(Cl)cc3)n2)C(C(=O)OC(C)(C)C)=C(C)N1,21 µM
5,CC1=C(C(=O)OCCc2ccccc2)C(c2csc(-c3ccc(Cl)cc3)n2)C(C(=O)OCCc2ccccc2)=C(C)N1,500 µM
6,CCOC(=O)C1=C(C)NC(C)=C(C(=O)OC)C1c1csc(-c2ccc(Cl)cc2)n1 (centres undefined),22 µM
7,CCCOC(=O)C1=C(C)NC(C)=C(C(=O)OCC)C1c1csc(-c2ccc(Cl)cc2)n1 (centres undefined),4.09 µM
8,COC(=O)C1=C(C)NC(C)=C(C(=O)OC(C)C)C1c1csc(-c2ccc(Cl)cc2)n1 (centres undefined),13.6 µM
9,CCOC(=O)C1=C(C)NC(C)=C(C(=O)OC(C)C)C1c1csc(-c2ccc(Cl)cc2)n1 (centres undefined),2.55 µM
10,CCOC(=O)C1=C(C)NC(C)=C(C(=O)OCC(C)C)C1c1csc(-c2ccc(Cl)cc2)n1 (centres undefined),15.4 µM
11,CCOC(=O)C1=C(C)NC(C)=C(C(=O)OC(C)(C)C)C1c1csc(-c2ccc(Cl)cc2)n1 (centres undefined),91 µM
12,CCOC(=O)C1=C(C)NC(C)=C(C(=O)OC2CCCC2)C1c1csc(-c2ccc(Cl)cc2)n1 (centres undefined),8.38 µM
13,CCOC(=O)C1=C(C)NC(C)=C(C(=O)OC2CCCCC2)C1c1csc(-c2ccc(Cl)cc2)n1 (centres undefined),100 µM
14,CCOC(=O)C1=C(C)NC(C)=C(C(=O)OC(C)c2ccccc2)C1c1csc(-c2ccc(Cl)cc2)n1 (centres undefined),13.8 µM

# Next, values leading:
row,IC50,Compound
1,400 µM,CC1=C(C(=O)OC(C)c2ccccc2)C(c2csc(-c3ccc(Cl)cc3)n2)C(C(=O)OC(C)c2ccccc2)=C(C)N1 (centres undefined)
2,71.9 µM,COC(=O)C1=C(C)NC(C)=C(C(=O)OC2CCCCC2)C1c1csc(-c2ccc(Cl)cc2)n1 (centres undefined)
3,64.9 µM,COC(=O)C1=C(C)NC(C)=C(C(=O)OCc2ccccc2)C1c1csc(-c2ccc(Cl)cc2)n1 (centres undefined)
4,46.9 µM,COC(=O)C1=C(C)NC(C)=C(C(=O)OCC(C)C)C1c1csc(-c2ccc(Cl)cc2)n1 (centres undefined)
5,46 µM,COC(=O)C1=C(C)NC(C)=C(C(=O)OC(C)(C)C)C1c1csc(-c2ccc(Cl)cc2)n1 (centres undefined)
6,37.2 µM,CC1=C(C(=O)OC(C)C)C(c2csc(-c3ccc(Cl)cc3)n2)C(C(=O)OC(C)C)=C(C)N1
7,19 µM,CC1=C(C(=O)OC2CCCC2)C(c2csc(-c3ccc(Cl)cc3)n2)C(C(=O)OC2CCCC2)=C(C)N1
8,12.1 µM,CCOC(=O)C1=C(C)NC(C)=C(C(=O)OCCc2ccccc2)C1c1csc(-c2ccc(Cl)cc2)n1 (centres undefined)
9,11 µM,CC1=C(C(=O)OC2CCCCC2)C(c2csc(-c3ccc(Cl)cc3)n2)C(C(=O)OC2CCCCC2)=C(C)N1
10,11 µM,CC1=C(C(=O)OCc2ccccc2)C(c2csc(-c3ccc(Cl)cc3)n2)C(C(=O)OCc2ccccc2)=C(C)N1
11,10.2 µM,COC(=O)C1=C(C)NC(C)=C(C(=O)OCCc2ccccc2)C1c1csc(-c2ccc(Cl)cc2)n1 (centres undefined)
12,7.62 µM,COC(=O)C1=C(C)NC(C)=C(C(=O)OC(C)c2ccccc2)C1c1csc(-c2ccc(Cl)cc2)n1 (centres undefined)
13,7.29 µM,COC(=O)C1=C(C)NC(C)=C(C(=O)OC2CCCC2)C1c1csc(-c2ccc(Cl)cc2)n1 (centres undefined)
14,5.92 µM,CCCOC(=O)C1=C(C)NC(C)=C(C(=O)OC)C1c1csc(-c2ccc(Cl)cc2)n1 (centres undefined)
15,3.65 µM,CCOC(=O)C1=C(C)NC(C)=C(C(=O)OCC)C1c1csc(-c2ccc(Cl)cc2)n1
16,3.29 µM,CCOC(=O)C1=C(C)NC(C)=C(C(=O)OCc2ccccc2)C1c1csc(-c2ccc(Cl)cc2)n1 (centres undefined)
